Reference: patent EP4745135A1 (Gluetacs Therapeutics (Shanghai) Co., Ltd., priority 2023, dated 2025)

Legend:
[1] = target: T1, WEE1 (Homo sapiens, UniProt P30291+Q96SW2); test: Western blot, degradation of substrate protein in hPBMCs; format: cell-based
T1 construct: effects of the compounds of the present disclosure on the expression of target proteins in cells; endogenous in cells; host or cells: human PBMCs (Milecell Biotechnologies)

[2] = target: T2, CK1α (Homo sapiens, UniProt P48729+Q96SW2); test: as above; format: cell-based
T2 construct: effects of the compounds of the present disclosure on the expression of target proteins in cells; endogenous in cells; host or cells: human PBMCs (Milecell Biotechnologies)

[3] = target: T3, IKZF2 (Homo sapiens, UniProt Q96SW2+Q9UKS7); test: as above; format: cell-based
T3 construct: effects of the compounds of the present disclosure on the expression of target proteins in cells; endogenous in cells; host or cells: human PBMCs (Milecell Biotechnologies)

[4] = target: T4, IKZF3 (Homo sapiens, UniProt Q96SW2+Q9UKT9); test: as above; format: cell-based
T4 construct: effects of the compounds of the present disclosure on the expression of target proteins in cells; endogenous in cells; host or cells: human PBMCs (Milecell Biotechnologies)

[5] = target: T5, IKZF1 (Homo sapiens, UniProt Q13422+Q96SW2); test: as above; format: cell-based
T5 construct: effects of the compounds of the present disclosure on the expression of target proteins in cells; endogenous in cells; host or cells: human PBMCs (Milecell Biotechnologies)

[6] = target: T6, human Cereblon WT GST-tagged protein (Homo sapiens, UniProt Q96SW2); test: CRBN-binding affinity, HTRF (CEREBLON BINDING kit); conditions: for inhibition at 0.5 µM: read-out: Inhibition Rate at 0.5 µM (%); for inhibition at 2 µM: read-out: Inhibition Rate at 2 µM (%)
T6 construct: purchased CISBIO 64BDCRBNPEH

[7] = system: GSPT1; test: Western blot, degradation of substrate protein in hPBMCs; format: cell-based, Human
[8] = Western blot, 24 hours of compound treatment, compounds tested at 50 nM and 500 nM (concentration for the table not stated)
[9] = 24 hours treatment, compounds at 50 nM and 500 nM (concentration behind the class not stated)

T6 sequence (Q96SW2 whole entry): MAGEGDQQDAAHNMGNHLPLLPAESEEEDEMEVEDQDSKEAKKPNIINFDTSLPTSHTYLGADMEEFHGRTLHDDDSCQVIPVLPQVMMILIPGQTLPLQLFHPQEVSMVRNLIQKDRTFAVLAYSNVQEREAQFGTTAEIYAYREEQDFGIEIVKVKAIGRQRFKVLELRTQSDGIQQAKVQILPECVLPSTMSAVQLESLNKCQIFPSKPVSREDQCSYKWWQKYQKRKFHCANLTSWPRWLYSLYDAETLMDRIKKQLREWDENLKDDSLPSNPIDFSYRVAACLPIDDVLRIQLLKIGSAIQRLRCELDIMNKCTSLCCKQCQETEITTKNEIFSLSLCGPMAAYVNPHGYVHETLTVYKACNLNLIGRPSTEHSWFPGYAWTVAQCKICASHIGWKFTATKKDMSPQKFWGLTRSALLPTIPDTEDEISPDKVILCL
T2 sequence (P48729 whole entry): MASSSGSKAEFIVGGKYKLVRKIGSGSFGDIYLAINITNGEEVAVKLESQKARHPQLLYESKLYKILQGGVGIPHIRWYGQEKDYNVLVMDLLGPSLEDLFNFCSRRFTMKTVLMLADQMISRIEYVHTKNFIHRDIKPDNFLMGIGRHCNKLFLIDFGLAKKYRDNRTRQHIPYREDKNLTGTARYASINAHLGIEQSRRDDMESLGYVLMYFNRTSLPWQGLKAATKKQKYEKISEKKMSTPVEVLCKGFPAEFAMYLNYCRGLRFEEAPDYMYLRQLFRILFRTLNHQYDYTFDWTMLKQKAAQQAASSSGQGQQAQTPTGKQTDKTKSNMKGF
T2 sequence (Q96SW2 whole entry): as the sequence (Q96SW2 whole entry) above
T2 sequence (Q16531 whole entry partner): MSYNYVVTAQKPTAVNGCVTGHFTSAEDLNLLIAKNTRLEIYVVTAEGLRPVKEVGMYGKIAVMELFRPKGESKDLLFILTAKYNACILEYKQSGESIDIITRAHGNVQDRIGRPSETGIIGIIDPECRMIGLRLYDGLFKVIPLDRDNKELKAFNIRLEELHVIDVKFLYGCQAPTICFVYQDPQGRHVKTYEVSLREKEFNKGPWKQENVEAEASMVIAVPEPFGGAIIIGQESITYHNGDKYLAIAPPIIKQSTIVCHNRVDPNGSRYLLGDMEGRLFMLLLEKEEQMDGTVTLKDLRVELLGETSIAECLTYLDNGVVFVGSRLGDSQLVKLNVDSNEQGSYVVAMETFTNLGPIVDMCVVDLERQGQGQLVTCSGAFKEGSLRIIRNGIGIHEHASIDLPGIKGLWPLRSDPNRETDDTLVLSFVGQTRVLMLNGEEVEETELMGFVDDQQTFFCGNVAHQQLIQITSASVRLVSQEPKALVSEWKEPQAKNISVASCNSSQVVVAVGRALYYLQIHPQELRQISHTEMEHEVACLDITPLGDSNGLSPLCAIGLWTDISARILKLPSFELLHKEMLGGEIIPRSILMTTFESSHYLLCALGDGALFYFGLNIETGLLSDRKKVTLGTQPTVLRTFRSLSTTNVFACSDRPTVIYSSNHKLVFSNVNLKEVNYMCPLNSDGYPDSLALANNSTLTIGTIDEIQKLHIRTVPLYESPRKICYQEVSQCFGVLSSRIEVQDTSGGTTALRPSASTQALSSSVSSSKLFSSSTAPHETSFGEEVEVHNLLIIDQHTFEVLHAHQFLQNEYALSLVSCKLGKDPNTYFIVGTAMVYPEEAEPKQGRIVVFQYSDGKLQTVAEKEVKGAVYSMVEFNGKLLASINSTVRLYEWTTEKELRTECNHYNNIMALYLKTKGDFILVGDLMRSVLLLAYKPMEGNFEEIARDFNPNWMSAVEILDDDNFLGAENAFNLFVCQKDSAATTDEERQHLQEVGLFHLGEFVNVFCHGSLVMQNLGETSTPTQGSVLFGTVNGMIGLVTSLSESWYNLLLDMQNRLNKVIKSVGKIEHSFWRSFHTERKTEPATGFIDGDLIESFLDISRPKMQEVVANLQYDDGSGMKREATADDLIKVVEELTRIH
T1 sequence (P30291 whole entry): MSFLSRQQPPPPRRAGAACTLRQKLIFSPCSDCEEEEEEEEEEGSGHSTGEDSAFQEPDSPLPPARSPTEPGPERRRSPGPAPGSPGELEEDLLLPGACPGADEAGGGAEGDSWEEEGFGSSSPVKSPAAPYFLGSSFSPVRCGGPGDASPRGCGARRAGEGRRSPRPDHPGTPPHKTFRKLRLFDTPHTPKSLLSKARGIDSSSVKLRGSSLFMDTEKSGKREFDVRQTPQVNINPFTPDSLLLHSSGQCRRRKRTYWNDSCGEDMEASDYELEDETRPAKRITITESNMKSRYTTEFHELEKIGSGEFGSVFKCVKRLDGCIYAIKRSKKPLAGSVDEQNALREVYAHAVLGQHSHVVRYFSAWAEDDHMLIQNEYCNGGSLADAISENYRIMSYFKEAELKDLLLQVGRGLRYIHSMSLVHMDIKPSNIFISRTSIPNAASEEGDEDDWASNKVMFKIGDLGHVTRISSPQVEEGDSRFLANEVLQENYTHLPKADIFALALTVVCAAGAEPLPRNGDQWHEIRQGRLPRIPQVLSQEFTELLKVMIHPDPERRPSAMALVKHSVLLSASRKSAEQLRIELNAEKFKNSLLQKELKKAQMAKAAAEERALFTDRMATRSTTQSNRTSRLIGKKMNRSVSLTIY
T1 sequence (Q96SW2 whole entry): as the sequence (Q96SW2 whole entry) above
T1 sequence (Q16531 whole entry partner): as the sequence (Q16531 whole entry partner) above
T5 sequence (Q13422 whole entry): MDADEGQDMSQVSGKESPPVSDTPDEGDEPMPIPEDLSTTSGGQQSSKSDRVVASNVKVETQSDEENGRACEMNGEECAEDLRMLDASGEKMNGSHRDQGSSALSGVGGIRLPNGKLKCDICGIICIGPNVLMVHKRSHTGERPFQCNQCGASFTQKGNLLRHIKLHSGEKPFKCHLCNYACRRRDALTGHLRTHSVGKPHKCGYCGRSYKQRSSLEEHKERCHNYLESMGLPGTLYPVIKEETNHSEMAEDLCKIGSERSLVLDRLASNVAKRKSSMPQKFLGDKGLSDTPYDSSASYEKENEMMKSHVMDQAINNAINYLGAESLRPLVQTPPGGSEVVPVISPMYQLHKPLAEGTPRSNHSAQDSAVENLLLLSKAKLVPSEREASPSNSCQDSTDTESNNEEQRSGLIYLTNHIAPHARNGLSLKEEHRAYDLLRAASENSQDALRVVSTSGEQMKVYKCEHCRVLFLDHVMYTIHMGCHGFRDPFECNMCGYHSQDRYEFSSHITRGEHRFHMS
T5 sequence (Q96SW2 whole entry): as the sequence (Q96SW2 whole entry) above
T5 sequence (Q16531 whole entry partner): as the sequence (Q16531 whole entry partner) above
T4 sequence (Q9UKT9 whole entry): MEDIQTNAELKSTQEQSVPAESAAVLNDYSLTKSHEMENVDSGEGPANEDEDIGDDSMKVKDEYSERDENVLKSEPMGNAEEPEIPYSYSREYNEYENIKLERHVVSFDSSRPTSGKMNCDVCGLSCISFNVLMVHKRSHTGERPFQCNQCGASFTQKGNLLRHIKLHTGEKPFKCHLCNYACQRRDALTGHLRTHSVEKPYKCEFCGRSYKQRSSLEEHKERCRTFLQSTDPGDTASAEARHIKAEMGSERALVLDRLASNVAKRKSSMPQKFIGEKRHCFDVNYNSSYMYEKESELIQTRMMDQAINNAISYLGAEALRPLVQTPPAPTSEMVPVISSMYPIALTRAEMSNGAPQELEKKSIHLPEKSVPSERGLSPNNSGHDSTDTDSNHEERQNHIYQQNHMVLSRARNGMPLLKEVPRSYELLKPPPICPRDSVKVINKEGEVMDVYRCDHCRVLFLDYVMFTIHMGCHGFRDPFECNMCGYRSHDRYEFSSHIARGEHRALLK
T4 sequence (Q96SW2 whole entry): as the sequence (Q96SW2 whole entry) above
T4 sequence (Q16531 whole entry partner): as the sequence (Q16531 whole entry partner) above
T3 sequence (Q9UKS7 whole entry): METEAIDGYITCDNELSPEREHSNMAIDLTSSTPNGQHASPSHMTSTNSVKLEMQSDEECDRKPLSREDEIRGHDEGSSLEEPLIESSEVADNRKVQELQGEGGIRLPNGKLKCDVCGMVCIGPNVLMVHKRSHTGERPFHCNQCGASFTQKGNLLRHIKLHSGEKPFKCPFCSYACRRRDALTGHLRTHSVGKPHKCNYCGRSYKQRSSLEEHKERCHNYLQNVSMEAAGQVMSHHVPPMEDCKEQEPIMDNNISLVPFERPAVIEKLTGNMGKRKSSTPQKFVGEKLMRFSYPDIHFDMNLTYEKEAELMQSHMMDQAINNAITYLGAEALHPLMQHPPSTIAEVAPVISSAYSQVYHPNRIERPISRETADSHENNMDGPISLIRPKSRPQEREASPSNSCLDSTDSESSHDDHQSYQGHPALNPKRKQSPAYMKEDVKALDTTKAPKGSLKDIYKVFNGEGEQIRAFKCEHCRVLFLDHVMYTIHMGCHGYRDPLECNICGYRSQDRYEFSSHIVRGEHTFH
T3 sequence (Q96SW2 whole entry): as the sequence (Q96SW2 whole entry) above
T3 sequence (Q16531 whole entry partner): as the sequence (Q16531 whole entry partner) above

| Structure (SMILES) | Wee1 substrate protein remaining % [1, 8] | CK1α substrate protein remaining % [2, 8] | IKZF2 substrate protein remaining % [3, 8] | IKZF3 substrate protein remaining % [4, 8] | IKZF 1 substrate protein remaining % [5, 8] | inhibition at 0.5 µM [6] [%] | inhibition at 2 µM [6] [%] | GSPT1 substrate protein remaining % [7, 8] | Wee1 substrate protein remaining % [1, 9] | CK1α substrate protein remaining % [2, 9] | IKZF2 substrate protein remaining % [3, 9] | IKZF3 substrate protein remaining % [4, 9] | IKZF 1 substrate protein remaining % [5, 9] | GSPT1 substrate protein remaining % [7, 9] |
| --- | --- | --- | --- | --- | --- | --- | --- | --- | --- | --- | --- | --- | --- | --- |
| Cc1ccccc1N1CCN(Cc2ccc3c(c2)CN(C2CCC(=O)NC2=O)C3=S)CC1 (stereo not shown) [GT-08601, 3-(1-thioxo-5-((4-(o-tolyl)piperazin-1-yl)methyl)isoindolin-2-yl)piperidine-2,6-dione] | B (80%< substrate protein remaining %≤ 100%) | B (80%< substrate protein remaining %≤ 100%) | B (80%< substrate protein remaining %≤ 100%) | B (80%< substrate protein remaining %≤ 100%) | B (80%< substrate protein remaining %≤ 100%) | 40 to 53 | 80 to 100 | A (0% ≤ substrate protein remaining % ≤ 80%) | – | – | – | – | – | – |
| O=C1CCC(N2Cc3cc(CN4CCN(c5nc(Cl)nc6c5SCC6)CC4)ccc3C2=S)C(=O)N1 (stereo not shown) [GT-09328, 3-(5-((4-(2-chloro-6,7-dihydrothieno[3,2-d]pyrimidin-4-yl)piperazin-1-yl)methyl)-1-thioxoisoindolin-2-yl)piperidine-2,6-dione] | – | – | – | – | – | 53 to 60 | 80 to 100 | – | B (80%< substrate protein remaining %≤ 100%) | B (80%< substrate protein remaining %≤ 100%) | A (0% ≤ substrate protein remaining % ≤ 80%) | B (80%< substrate protein remaining %≤ 100%) | B (80%< substrate protein remaining %≤ 100%) | B (80%< substrate protein remaining %≤ 100%) |
| O=C1CCC(N2Cc3c(CN4CCN(c5nc(Cl)nc6c5SCC6)CC4)cccc3C2=S)C(=O)N1 (stereo not shown) [GT-08966, 3-(4-((4-(2-chloro-6,7-dihydrothieno[3,2-d]pyrimidin-4-yl)piperazin-1-yl)methyl)-1-thioxoisoindolin-2-yl)piperidine-2,6-dione] | – | – | – | – | – | 80 to 100 | 80 to 100 | – | B (80%< substrate protein remaining %≤ 100%) | B (80%< substrate protein remaining %≤ 100%) | B (80%< substrate protein remaining %≤ 100%) | B (80%< substrate protein remaining %≤ 100%) | B (80%< substrate protein remaining %≤ 100%) | A (0% ≤ substrate protein remaining % ≤ 80%) |
| O=C1CCC(N2Cc3c(CN4CCC(N5CCOc6cc(F)ccc65)CC4)cccc3C2=S)C(=O)N1 (stereo not shown) [GT-08852, 3-(4-((4-(7-fluoro-2,3-dihydro-4H-benzo[b][1,4]oxazin-4-yl)piperidin-1-yl)methyl)-1-thioxoisoindolin-2-yl)piperidine-2,6-dione] | – | – | – | – | – | 40 to 53 | 80 to 100 | – | A (0% ≤ substrate protein remaining % ≤ 80%) | B (80%< substrate protein remaining %≤ 100%) | B (80%< substrate protein remaining %≤ 100%) | B (80%< substrate protein remaining %≤ 100%) | B (80%< substrate protein remaining %≤ 100%) | B (80%< substrate protein remaining %≤ 100%) |
| O=C1CCC(N2Cc3c(CN4CCN(c5noc6cc(F)ccc56)CC4)cccc3C2=S)C(=O)N1 (stereo not shown) [GT-08818, 3-(4-((4-(6-fluorobenzo[d]isoxazol-3-yl)piperazin-1-yl)methyl)-1-thioxoisoindolin-2-yl)piperidine-2,6-dione] | A (0% ≤ substrate protein remaining % ≤ 80%) | B (80%< substrate protein remaining %≤ 100%) | B (80%< substrate protein remaining %≤ 100%) | B (80%< substrate protein remaining %≤ 100%) | B (80%< substrate protein remaining %≤ 100%) | 53 to 60 | 60 to 80 | A (0% ≤ substrate protein remaining % ≤ 80%) | – | – | – | – | – | – |
| O=C1CCC(N2Cc3cc(CN4CCC(c5cccc6c(F)cccc56)CC4)ccc3C2=S)C(=O)N1 (stereo not shown) [GT-09275, 3-(5-((4-(5-fluoronaphthalen-1-yl)piperidin-1-yl)methyl)-1-thioxoisoindolin-2-yl)piperidine-2,6-dione] | – | – | – | – | – | 30 to 40 | 60 to 80 | – | B (80%< substrate protein remaining %≤ 100%) | B (80%< substrate protein remaining %≤ 100%) | B (80%< substrate protein remaining %≤ 100%) | B (80%< substrate protein remaining %≤ 100%) | B (80%< substrate protein remaining %≤ 100%) | A (0% ≤ substrate protein remaining % ≤ 80%) |
| O=C1CCC(N2Cc3c(CN4CCCN(c5cccc(Cl)c5Cl)CC4)cccc3C2=S)C(=O)N1 (stereo not shown) [GT-08472, 3-(4-((4-(2,3-dichlorophenyl)-1,4-diazepan-1-yl)methyl)-1-thioxoisoindolin-2-yl)piperidine-2,6-dione] | B (80%< substrate protein remaining %≤ 100%) | B (80%< substrate protein remaining %≤ 100%) | B (80%< substrate protein remaining %≤ 100%) | B (80%< substrate protein remaining %≤ 100%) | B (80%< substrate protein remaining %≤ 100%) | 40 to 53 | 80 to 100 | A (0% ≤ substrate protein remaining % ≤ 80%) | – | – | – | – | – | – |
| O=C1CCC(N2Cc3cc(CN4CCN(c5cc(Cl)ccn5)CC4)ccc3C2=S)C(=O)N1 (stereo not shown) [GT-09218, 3-(5-((4-(4-chloropyridin-2-yl)piperazin-1-yl)methyl)-1-thioxoisoindolin-2-yl)piperidine-2,6-dione] | B (80%< substrate protein remaining %≤ 100%) | B (80%< substrate protein remaining %≤ 100%) | B (80%< substrate protein remaining %≤ 100%) | B (80%< substrate protein remaining %≤ 100%) | B (80%< substrate protein remaining %≤ 100%) | 60 to 80 | 80 to 100 | A (0% ≤ substrate protein remaining % ≤ 80%) | – | – | – | – | – | – |
| O=C1CCC(N2Cc3cc(CN4CCC(c5ccc(F)cc5)CC4)ccc3C2=S)C(=O)N1 (stereo not shown) [GT-08621, 3-(5-((4-(4-fluorophenyl)piperidin-1-yl)methyl)-1-thioxoisoindolin-2-yl)piperidine-2,6-dione] | B (80%< substrate protein remaining %≤ 100%) | B (80%< substrate protein remaining %≤ 100%) | A (0% ≤ substrate protein remaining % ≤ 80%) | B (80%< substrate protein remaining %≤ 100%) | B (80%< substrate protein remaining %≤ 100%) | 53 to 60 | 80 to 100 | A (0% ≤ substrate protein remaining % ≤ 80%) | – | – | – | – | – | – |
| O=C1CCC(N2Cc3cc(CN4CCN(c5nccc(Cl)c5F)CC4)ccc3C2=S)C(=O)N1 (stereo not shown) [GT-09244, 3-(5-((4-(4-chloro-3-fluoropyridin-2-yl)piperazin-1-yl)methyl)-1-thioxoisoindolin-2-yl)piperidine-2,6-dione] | – | – | – | – | – | 60 to 80 | 80 to 100 | – | B (80%< substrate protein remaining %≤ 100%) | B (80%< substrate protein remaining %≤ 100%) | B (80%< substrate protein remaining %≤ 100%) | B (80%< substrate protein remaining %≤ 100%) | B (80%< substrate protein remaining %≤ 100%) | A (0% ≤ substrate protein remaining % ≤ 80%) |
| CC1(C)CCC(CN2C3CC2CN(Cc2ccc4c(c2)CN(C2CCC(=O)NC2=O)C4=S)C3)=C(c2ccc(Cl)cc2)C1 (stereo not shown) [GT-08161, 3-(5-((6-((4'-chloro-5,5-dimethyl-3,4,5,6-tetrahydro-[1,1'-biphenyl]-2-yl)methyl)-3,6-diazabicyclo[3.1.1]heptan-3-yl)methyl)-1-thioxoisoindolin-2-yl)piperidine-2,6-dione] | – | – | – | – | – | 40 to 53 | 80 to 100 | – | A (0% ≤ substrate protein remaining % ≤ 80%) | B (80%< substrate protein remaining %≤ 100%) | A (0% ≤ substrate protein remaining % ≤ 80%) | A (0% ≤ substrate protein remaining % ≤ 80%) | B (80%< substrate protein remaining %≤ 100%) | A (0% ≤ substrate protein remaining % ≤ 80%) |
